Measurements: patent publication US11104670B2, “4-pyrimidin-5-ylmethyl-morpholine derivatives and the use thereof as medicament” (Boehringer Ingelheim International GmbH, priority 2018, dated 2021)

Experiments:
Type in all cases: cell-based
NMDA NR1/NR2B receptor [1] = biological target: NMDA NR1/NR2B receptor (Homo sapiens (Human), UniProt Q13224); assay: NMDA NR1/NR2B FLIPR calcium assay in HEK293 cells; conditions: glycine/glutamate-induced calcium, read-out: IC50, in vitro NR2B affinity in the FLIPR assay
NMDA NR1/NR2B receptor (Homo sapiens (Human), UniProt Q13224), sequence (Q13224 27-1484, other chains not shown): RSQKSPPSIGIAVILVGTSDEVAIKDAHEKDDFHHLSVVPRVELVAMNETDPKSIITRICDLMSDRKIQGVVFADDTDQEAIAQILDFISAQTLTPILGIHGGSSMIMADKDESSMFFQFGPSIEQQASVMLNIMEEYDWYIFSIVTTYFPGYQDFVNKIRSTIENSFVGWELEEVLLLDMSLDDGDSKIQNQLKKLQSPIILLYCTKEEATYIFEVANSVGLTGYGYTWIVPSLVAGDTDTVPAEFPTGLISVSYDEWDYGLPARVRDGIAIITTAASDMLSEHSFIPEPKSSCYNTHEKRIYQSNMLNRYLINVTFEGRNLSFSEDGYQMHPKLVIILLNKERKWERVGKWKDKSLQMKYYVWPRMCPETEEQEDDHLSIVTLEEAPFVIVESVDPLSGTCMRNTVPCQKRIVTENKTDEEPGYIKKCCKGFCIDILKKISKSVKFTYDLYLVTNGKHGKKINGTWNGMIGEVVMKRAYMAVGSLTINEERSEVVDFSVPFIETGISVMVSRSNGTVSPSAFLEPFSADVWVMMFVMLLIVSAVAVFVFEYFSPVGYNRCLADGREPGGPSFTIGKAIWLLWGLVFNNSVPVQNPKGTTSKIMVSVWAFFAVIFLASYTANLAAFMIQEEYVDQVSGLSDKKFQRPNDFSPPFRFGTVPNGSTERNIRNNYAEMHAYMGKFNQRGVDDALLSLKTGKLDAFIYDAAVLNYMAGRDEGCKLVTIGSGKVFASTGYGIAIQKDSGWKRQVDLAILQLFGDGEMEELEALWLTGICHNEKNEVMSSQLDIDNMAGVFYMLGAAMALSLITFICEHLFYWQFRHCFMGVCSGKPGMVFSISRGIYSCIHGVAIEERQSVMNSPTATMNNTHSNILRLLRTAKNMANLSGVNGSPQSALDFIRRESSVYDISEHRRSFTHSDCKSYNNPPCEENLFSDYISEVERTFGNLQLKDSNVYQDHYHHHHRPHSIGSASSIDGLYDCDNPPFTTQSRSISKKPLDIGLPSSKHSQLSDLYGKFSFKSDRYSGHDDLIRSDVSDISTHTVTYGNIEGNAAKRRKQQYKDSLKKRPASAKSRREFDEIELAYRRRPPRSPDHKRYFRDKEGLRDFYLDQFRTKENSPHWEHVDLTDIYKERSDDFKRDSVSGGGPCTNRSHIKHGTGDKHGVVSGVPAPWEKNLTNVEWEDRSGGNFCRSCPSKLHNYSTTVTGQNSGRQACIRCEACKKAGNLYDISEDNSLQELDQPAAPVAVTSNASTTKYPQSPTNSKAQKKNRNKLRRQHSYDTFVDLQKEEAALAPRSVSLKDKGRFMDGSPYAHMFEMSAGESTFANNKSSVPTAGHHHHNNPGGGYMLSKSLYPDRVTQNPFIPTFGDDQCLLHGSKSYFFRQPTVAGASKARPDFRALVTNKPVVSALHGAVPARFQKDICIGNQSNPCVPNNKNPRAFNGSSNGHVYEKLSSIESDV
Method: (§1) A human HEK293 cell line with tetracyclin-inducible expression of NMDA NR1/NR2B receptor was used as a test system for compound efficacy and potency. The cell line was purchased from ChanTest, Catalog #CT6121. Compound activity was determined by measuring the effect of compounds on intracellular calcium concentration induced by glycine/glutamate agonism in a FLIPRtetra system (Molecular Devices).
(§2) The cells were obtained as frozen cells in cryo-vials and stored until use at −150° C. Cells were grown in culture medium (DMEM/F12, 10% FBS, 5 μg/mL Blasticidin, 150 μg/mL Zeozin, 500 μg/mL Geneticin). […] For sub-culturing the cells were detached from flasks by Versene. For the assay, cells were detached, washed twice with induction medium (DMEM/F12 without glutamine, 10% FBS, 2 μg/mL Tetracycline, 2 mM Ketamine) and seeded to 384 well pure coat amine plates (Becton Dickinson, 50000 cells per well in 50 μl) 48 h prior to assay in induction medium.
(§3) The test compounds were dissolved in 100% DMSO at a concentration of 10 mM and in a first step diluted in DMSO to a concentration of 5 mM, followed by serial dilution steps in 100% DMSO. Dilution factor and number of dilution steps may vary according to needs. Typically 8 different concentrations by 1:5 dilutions were prepared in duplicate, further intermediate dilutions (1:37.5) of the substances were carried out with aqueous assay buffer (137 mM NaCl, 4 mM KCl, 1.8 mM CaCl2), 10 mM HEPES, 10 mM Glucose, pH 7.4) resulting in a compound concentration 3 times above the final test concentration and DMSO at 2.7% resulting in 0.9% final DMSO concentration in the assay.
(§4) At the assay day cells were washed 3× with assay buffer (as described above), 10 μL buffer remained in the wells after washing. 10 μL Ca kit loading buffer (AAT Bioquest; prepared from the kit containing the following components: Component A: Fluo-8 NW dissolved in 200 μL DMSO and 20 μl of this solution are mixed with 10 ml buffer prepared out of component B and C, Component B: 10× Pluronic® F127 Plus diluted 1:10 in component C, Component C: HHBS (Hanks with 20 mM Hepes) was added to the cells and the plates were incubated with lid for 60 minutes at room temperature. 20 μl assay buffer containing 60 μM glycine (20 μM final) and 3 μM glutamate (1 μM final) was added to column 1-23, column 24 got assay buffer without glycine/glutamate to serve as negative unstimulated control. Fluorescence (indicating the calcium influx as a result of the NR1/NR2B ion channel activation) was read on the FLIPRtetra device for 60 seconds to monitor the glutamate induced effects. After 2 minutes 20 μL of compound dilution prepared as described above or controls (row 1-22) in assay buffer were carefully added to the wells. […] The average of 2 measurements at 5 minutes and 5 min 10 seconds after compound addition is calculated and further used for IC50 calculations. Each assay microtiter compound dilution plate contained wells (in column 23 or 24) with DMSO controls instead of compound as controls for glycine/glutamate induced fluorescence (high controls) and wells with 1 μM of a reference NR2B NAM as low controls (Compound 22; reference: Layton, Mark E et al, ACS Chemical Neuroscience 2011, 2(7), 352-362).
(§5) The output file of the reader contains the well number and measured average fluorescence units. For data evaluation and calculation, the measurement of the low control was set as 0% control and the measurement of the high control was set as 100% control. The IC50 values were calculated using the standard 4 parameter logistic regression formula. Calculation: [y=(a−d)/(1+(x/c)^b)+d], a=low value, d=high value; x=conc M; c=IC50 M; b=slope.

NMDA NR1/NR2B receptor [2] = biological target: NMDA NR1/NR2B receptor (Homo sapiens (Human), UniProt Q05586+Q13224); assay: NMDA NR1/NR2B FLIPR calcium assay in HEK293 cells; conditions: glycine/glutamate-induced calcium, read-out: IC50, in vitro NR2B affinity in the FLIPR assay
NMDA NR1/NR2B receptor (Homo sapiens (Human), UniProt Q05586+Q13224), sequence (Q13224 27-1484, other chains not shown): as above
Method: as §1, §2, §3, §4, §5

Nav1.6 channel = Nav1.6 channel (Homo sapiens (Human), UniProt Q9UQD0); assay: Nav1.6 inhibition, IonWorks Quattro electrophysiology; conditions: for inhibition at 1 µM / Normalized % inhibition at 5 μM / inhibition at 5 µM: normalized to vehicle (0%) and maximal inhibition control (100%)
Nav1.6 channel, sequence (Q9UQD0 whole entry): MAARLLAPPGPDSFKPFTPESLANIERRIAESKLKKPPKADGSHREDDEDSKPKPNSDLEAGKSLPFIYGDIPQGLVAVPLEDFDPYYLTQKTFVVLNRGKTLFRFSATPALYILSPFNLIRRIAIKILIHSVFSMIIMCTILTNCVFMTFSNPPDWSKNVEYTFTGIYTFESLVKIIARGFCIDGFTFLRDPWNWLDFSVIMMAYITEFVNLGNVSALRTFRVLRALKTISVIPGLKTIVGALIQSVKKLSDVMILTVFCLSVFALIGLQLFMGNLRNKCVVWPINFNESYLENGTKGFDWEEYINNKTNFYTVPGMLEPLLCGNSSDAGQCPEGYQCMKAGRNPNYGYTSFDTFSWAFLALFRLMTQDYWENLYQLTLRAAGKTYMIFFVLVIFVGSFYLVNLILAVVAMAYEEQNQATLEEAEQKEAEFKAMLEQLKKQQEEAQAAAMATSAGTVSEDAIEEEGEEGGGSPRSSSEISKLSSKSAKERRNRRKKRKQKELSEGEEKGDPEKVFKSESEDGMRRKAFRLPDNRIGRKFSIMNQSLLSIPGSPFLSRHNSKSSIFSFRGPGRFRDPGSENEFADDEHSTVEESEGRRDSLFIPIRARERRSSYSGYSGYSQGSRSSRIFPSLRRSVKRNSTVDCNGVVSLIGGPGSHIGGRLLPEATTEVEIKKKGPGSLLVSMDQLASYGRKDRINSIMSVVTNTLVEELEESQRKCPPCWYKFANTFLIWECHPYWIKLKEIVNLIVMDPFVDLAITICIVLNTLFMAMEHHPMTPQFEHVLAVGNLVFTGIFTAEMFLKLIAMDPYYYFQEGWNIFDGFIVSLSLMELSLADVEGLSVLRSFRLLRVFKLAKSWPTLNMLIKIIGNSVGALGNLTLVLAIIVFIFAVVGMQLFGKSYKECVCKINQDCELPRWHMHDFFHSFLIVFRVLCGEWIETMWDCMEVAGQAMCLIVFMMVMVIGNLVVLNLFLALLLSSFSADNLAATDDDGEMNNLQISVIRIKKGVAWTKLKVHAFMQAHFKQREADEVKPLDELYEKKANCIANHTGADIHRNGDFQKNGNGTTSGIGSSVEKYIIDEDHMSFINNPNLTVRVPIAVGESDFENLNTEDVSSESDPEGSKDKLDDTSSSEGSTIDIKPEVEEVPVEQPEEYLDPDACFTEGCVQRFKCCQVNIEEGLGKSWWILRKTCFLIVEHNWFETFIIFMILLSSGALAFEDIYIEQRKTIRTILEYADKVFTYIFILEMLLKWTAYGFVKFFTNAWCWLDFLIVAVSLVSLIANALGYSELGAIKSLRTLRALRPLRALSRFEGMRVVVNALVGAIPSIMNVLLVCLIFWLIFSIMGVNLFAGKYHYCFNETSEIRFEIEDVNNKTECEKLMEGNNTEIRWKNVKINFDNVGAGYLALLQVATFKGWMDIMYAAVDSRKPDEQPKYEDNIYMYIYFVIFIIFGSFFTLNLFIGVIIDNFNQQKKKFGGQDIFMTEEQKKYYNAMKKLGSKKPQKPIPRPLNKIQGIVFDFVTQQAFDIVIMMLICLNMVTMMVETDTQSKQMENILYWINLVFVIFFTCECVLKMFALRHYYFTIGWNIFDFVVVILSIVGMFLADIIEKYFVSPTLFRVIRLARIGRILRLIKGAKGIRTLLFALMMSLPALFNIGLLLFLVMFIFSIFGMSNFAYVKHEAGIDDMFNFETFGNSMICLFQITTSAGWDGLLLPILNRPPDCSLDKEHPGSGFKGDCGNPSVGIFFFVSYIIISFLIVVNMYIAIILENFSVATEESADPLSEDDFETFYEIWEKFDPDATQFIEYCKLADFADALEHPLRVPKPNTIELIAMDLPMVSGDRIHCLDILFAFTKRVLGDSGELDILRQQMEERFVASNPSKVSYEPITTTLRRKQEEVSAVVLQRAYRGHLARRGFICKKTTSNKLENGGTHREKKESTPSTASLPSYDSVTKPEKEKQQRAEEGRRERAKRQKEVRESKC
Method: Ion Works Quattro electrophysiological platform
The compounds were prepared in DMSO at 300× the final assay concentrations of 1 and 5 μM.
The 300× DMSO stock solutions were transferred into assay plates where 2 μl per well of each 300× stock solution were placed. All assay plates were stored at −80° C. until the day of assay.
On the day of the assay, the appropriate assay plate was thawed at room temperature, centrifuged, and 198 μl of external recording solution was added and mixed thoroughly. This provided a 1:100 dilution. A further 1:3 dilution occurred upon addition to the cells in the IonWorks Quattro electrophysiological platform, giving a 1:300 dilution in total.
On each assay plate, at least 8 wells were reserved for vehicle control (0.3% DMSO) and at least 8 wells for each positive control specific to the cell line tested. The positive controls were tested at a maximal blocking and an approximate IC50 concentration. As positive control Lidocaine at concentrations of 30 and 1000 μM was used.
Amphotericin B was used to obtain electrical access to the cell interior at a final concentration of 200 μg/ml in internal recording solution.
State-dependent inhibition: Sodium channels when held at depolarized potential or long test pulse, the channels open and inactivate and then stay inactivated until the membrane potential is stepped back to hyperpolarized potentials, when the inactivated channels recover from inactivation into closed state.
Cells were held at −120 mV. In order to completely inactivate the sodium channels (pulse 1), the cells were pulsed to +0 mV for 2500 ms and stepped back to −120 mV for 10 ms (to completely recover from inactivation, however channels that had drugs bound to them will not recover from inactivation) before stepping to +0 mV for 20 ms (pulse 2).
Both the positive and vehicle control data associated with each cell line assayed are shown below as an example. The mean is shown for each positive and negative control as solid symbol with the total number of individual well replicates given next to the solid symbol. In addition, the individual data of each well are shown on the graph as open symbols so that the variation about the mean value can be readily assessed.
In FIG. 2, a Post/Pre value of 1.0 corresponds to 0% inhibition, a Post/Pre value of 0.0 corresponds to 100% inhibition.
Tables 3 and 4 show the normalized percentage inhibition of Nav1.6 channel. […] (see also the figure Assay Control Results above).

| Compound | IC50 (NMDA NR1/NR2B receptor [1]) | IC50 (NMDA NR1/NR2B receptor [2]) | inhibition at 1 µM (Nav1.6 channel) | Normalized % inhibition at 5 μM (Nav1.6 channel) | inhibition at 5 µM (Nav1.6 channel) | also measured |
| --- | --- | --- | --- | --- | --- | --- |
| CNC(=O)[C@@H]1CN(Cc2cnc(Oc3ccccc3)nc2)CCO1 [Example 33] | 509 nM | – | – | – | – | – |
| CNC(=O)[C@@H]1CN(Cc2cnc(Oc3c(F)cccc3F)nc2)CCO1 [Example 34] | 362 nM | – | – | – | – | – |
| CNC(=O)[C@@H]1CN(Cc2cnc(Oc3c(C)cccc3F)nc2)CCO1 [Example 35] | 933 nM | – | – | – | – | – |
| CCNC(=O)C1CN(Cc2cccc(Oc3ccccc3)c2)CCO1 (stereo not drawn) [Example 100, reference compound] | – | > 8890 nM | 2.2% | 37.8% | 37.8% | – |
| O=C(NCc1ccccn1)C1CN(Cc2cccc(Oc3ccccc3)c2)CCO1 (stereo not drawn) [Example 105, reference compound] | – | > 9260 nM | 18.2% | 68% | 68% | – |
| O=C(C1CN(Cc2cccc(Oc3ccccc3)c2)CCO1)N1CCOCC1 (stereo not drawn) [Example 106, reference compound] | – | > 9260 nM | -0.7% | 14% | 14% | – |
| CCN(CC)CC(=O)Nc1c(C)cccc1C [Lidocaine, reference compound] | – | – | – | – | – | inhibition of evoked Nav1.6 currents (in words) (Nav1.6 channel; assay control, 30 and 1000 μM): inhibited evoked currents in a concentration and use dependent manner; inhibition at 1000 µM (Nav1.6 channel; read-out: maximum inhibition at P1 (not normalized)): 46.4 to 47.2% |
| CCCCNc1ccc(C(=O)OCCN(C)C)cc1 [Tetracaine, reference compound] | – | – | – | – | – | state-dependent inhibition of Nav1.6 (in words) (Nav1.6 channel; depolarized vs hyperpolarized potential): much stronger at depolarized potentials than at hyperpolarized potential |
